Laboratory results published in patent US10166237B2, “Compounds and methods for inducing chondrogenesis” (The Scripps Research Institute, priority 2011, dated 2019).

Columns and labels:
[1] = system: primary bovine chondrocytes; test: inhibition of cytokine-induced nitric oxide release (Greiss reaction); format: cell-based; conditions: Bos taurus, Chondrocyte; second value of the cell (after the slash); TNFα and oncostatin M, 48 hours; read-out: NO INHIBTION μM IC50
Text: (§1) In the screen, hMSCs were used as a surrogate to future targeting of the resident MSCs with the cartilage joint. It was in that setting upon which we identified PRO1. In a joint injury, the primary cell type a therapeutic would have contact with is the chondrocyte. Although cartilage or chondrocyte-targeted screening has not lead to the development of a successful drug modifying osteoarthritis drug (DMOAD) to date, it is believed that a stem cell-based therapeutic would protect and even repair the existing chondrocytes. Therefore, protection of the articular chondrocytes and cartilage from a mature bovine knee was assessed. PRO1 and its analogues were incubated with primary bovine chondrocytes or cartilage explants cultures grown in the presence of TNFα and oncostatin M to mimic the cytokine-induced damage that can occur during OA. In the presence of the cytokine cocktail, in vitro cultured primary chondrocytes released 4-5 fold more nitric oxide (NO) than the untreated chondrocytes (50 μM vs 10 μM) as measured by the Greiss reaction. In cells treated with the cytokine cocktail and PRO1, the small molecule could effectively block the release of NO by up to 70% FIG. 2C). Similarly, in ex vivo treated cartilage explants, cytokine-induced release of glycosaminoglycans (GAG) was reduced by up to 60% by PRO1 (FIG. 2D). Finally, hMSC were grown in pellet culture for 21 days.
(§2) Primary hMSCs were plated (10,000/well) in 384-well plates and cultured for 18 days. The cells were fixed with 4% formalin, permeabilized with triton (0.5%), digested with 0.5 mg/ml collagenase II to unwind the collagen fibrils, and then immunostained with an antibody recognizing type II collagen. DAPI (2 μg/ml) was added to visualize the nuclei. The chondrogenic nodules stained positive for type II collagen but lacked expression of type X collagen and osteocalcin, markers for chondrocyte hypertrophy and osteoblasts, respectively (not shown). 10,000 hMSCs (passages 3-5) were plated in Greiner 384-well low-bottom plates on day 1. The cells were allowed to adhere and stimulated for 48 hrs (days 2-3) with the indicated stimuli in MSC growth media (Millipore). The media was then removed and replaced with serum-free DMEM for an additional 16 days. This media was replenished on days 10 and 15 of the assay. Primary bovine chondrocytes were isolated from the articular surfaces from mature knees. After one week of culture, 8,500 cells were trypsinized and plated in Greiner 384-well white clear-bottom plates in growth media. […] 20 μl of the supernatant was mixed with 20 μl of the Greiss reagent and quantitated at 540 nm as described by the Promega kit instructions. Bovine cartilage explants (cut in circular explants in a 96 well plate) were cultured in the presence of 20 ng/ml TNFα and 10 ng/ml oncostatin M to induce GAG release for 72 hours (FIG. 2D). PRO1 was added at the indicated concentrations during the entire 72 hrs. […] Parafin sections were hydrated, incubated in low pH Antigen unmasking solution (Vector) at 90 C for 10 minutes, permeabilized with 0.1% collagenase II (only for the sections stained with type II collagen) for 10 minutes, blocked with CAS block for 10 minutes and then incubated with the primary antibody (type II collagen, aggrecan or Timp1) antibody (Abcam) overnight at 4 C. The antigens were visualized through standard ABC detection methods and developed with DAB. Representative of 3 sections stained/treatment group (independent experiments).

[2] = system: human mesenchymal stem cells (hMSCs); test: chondrogenic nodule formation by hMSCs (high throughput screen); format: cell-based; conditions: Homo sapiens, Mesenchymal stem cells; first value of the cell (before the slash); read-out: CHONDROGENIC μM EC50
In short: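 Primary hMSCs (10^4/well) in serum-free DMEM exposed to compounds at 5 μM for 4 days. Chondrogenic nodules stained with Nile red (binds collagens) and counted by high-content imaging with 488 laser excitation. In 96-well follow-up, 50,000 cells/well treated 4 days, formalin-fixed, stained with 1 μg/ml Rhodamine B.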

[3] = system: hMSCs; test: type II collagen expression in hMSC cultures (18 day assay); format: cell-based, human; conditions: Homo sapiens
Protocol: The chondrogenic differentiation event was initiated quickly even though a fully differentiated chondrocyte phenotype cannot be assessed prior to 14 days in culture. In an 18 day assay, compound treatment was only required for the first 48 hrs and followed by removal and replacement of the media (in the absence of stimuli, FIG. 2B). The promotion of chondrogenic differentiation was not altered or enhanced upon longer treatment with the stimuli (data not shown).
as §2

[4] = system: bovine cartilage explants; test: cytokine-induced GAG release from cartilage explants ex vivo; format: cell-based; conditions: 1 μM (or less); compared with PRO1
Text: as §1, with “In cells treated with the cytokine cocktail and PRO1, the small molecule could effectively block the release of NO by up to 70% FIG. 2C). Similarly, in ex vivo treated cartilage explants, cytokine-induced release of glycosaminoglycans (GAG) was reduced by up to 60% by PRO1 (FIG. 2D). Finally, hMSC were grown in pellet culture for 21 days.” left out
Primary hMSCs were plated (10,000/well) in 384-well plates and cultured for 18 days. […] 20 μl of the supernatant was mixed with 20 μl of the Greiss reagent and quantitated at 540 nm as described by the Promega kit instructions. […]

| EC50 [2] | EC50 [3] | Molecule | IC50 [1] | chondro-protective activities [4] |
| --- | --- | --- | --- | --- |
| 0.0046 µM | > 10 µM | O=C(O)c1cc(O)ccc1C(=O)Nc1ccc(-c2ccccc2)cc1 [LK22b, 2-([1,1′-biphenyl]-4-ylcarbamoyl)-5-hydroxybenzoic acid] | > 10 µM |  |
| 0.014 µM | > 10 µM | Cc1ccc(C(=O)Nc2ccc(C#N)cc2)cc1 [LK20b] | > 10 µM |  |
| 3.8 µM | 33.3 µM | O=C(O)c1cc(S(=O)(=O)c2ccc(C(=O)Nc3ccc(-c4ccccc4)cc3)c(C(=O)O)c2)ccc1C(=O)Nc1ccc(-c2ccccc2)cc1 [LK4] | > 10 µM |  |
| 0.0015 µM | 0.05 µM | O=C(O)c1ccccc1C(=O)Nc1ccc(-c2ccccc2)cc1 [LK18b] | 2.7 µM |  |
| 9.1 µM | > 10 µM | NS(=O)(=O)c1ccc(NC(=O)c2ccccc2C(=O)O)cc1 [LK8] | > 10 µM |  |
| > 10 µM | > 10 µM | O=C(O)c1ccccc1C(=O)Nc1ccc(Nc2ccccc2)cc1 [LK7] | > 10 µM |  |
| 9.1 µM | > 10 µM | O=C(O)c1ccccc1C(=O)Nc1ccc(N2CCOCC2)cc1 [LK6, 2-((4-morpholinophenyl)carbamoyl)benzoic acid] | > 10 µM |  |

The next lines start with the molecule.

| Molecule | EC50 [2] | EC50 [3] | IC50 [1] | chondro-protective activities [4] |
| --- | --- | --- | --- | --- |
| C[C@@H](C(=O)Nc1ccc(Cl)cn1)N1Cc2ccccc2C1=O [SMA-1*] | > 10 µM | 0.37 µM | 0.04 µM |  |
| CNC(=O)c1ccccc1C(=O)O [AKT-NHMe] | 2.7 µM | 0.24 µM | 0.0046 µM |  |
| Cc1cncc(NC(=O)c2ccccc2C(=O)O)c1 [Compound L5] | 0.6 µM | > 10 µM | 2.4 µM |  |
| O=C(O)c1ccccc1C(=O)Nc1ccc(CO)cc1 [AKT-CH2OH, 2-((4-(hydroxymethyl)phenyl)carbamoyl)benzoic acid] | 0.04 µM | 8.46 µM | 0.27 µM |  |
| CCNC(=O)c1ccccc1C(=O)O [AKT-NHEt] | 2.01 µM | > 10 µM | > 10 µM |  |
| Cc1ccc(C(=O)Nc2ccc(-c3ccccc3)cc2)c(C(=O)O)c1 [AKT-Me] | > 10 µM | > 10 µM | > 10 µM |  |
| N#CCc1ccc(NC(=O)c2ccccc2C(=O)O)cc1 [Compound L13] | > 10 µM | > 10 µM | > 10 µM |  |
| CC(C)CNC(=O)c1ccccc1C(=O)Nc1ccc(-c2ccccc2)cc1 [AKT-iPr] | 0.0015 µM | 6.98 µM | > 10 µM |  |
| TGFβ3: "known inducers of chondrogenic differentiation (TGFβ3, BMP7 or BMP2)" (protein, UniProt P10600 301-412, looked up) Transforming growth factor …: ALDTNYCFRNLEENCCVRPLYIDFRQDLGWKWVHEPKGYYANFCSGPCPYLRSADTTHSTVLGLYNTLNPEASASPCCVPQDLEPLTILYYVGRTPKVEQLSNMVVKSCKCS |  |  |  | did not have the same degree of chondro-protective activities |
